This note sets out measurements from patent US9980967B1, “Method for overcoming drug resistance of EGFR mutation and cancerous stemness of human non-small cell lung carcinoma” (NATIONAL CHIAO TUNG UNIVERSITY, priority 2017, dated 2018).

Data set [1] concerns the target T1, phosphorylated EGFR (Tyr1068) (Homo sapiens, UniProt P00533).
T1 construct: endogenous in cells; host or cells: A549 (ATCC CCL-185)
The data set is described as follows: Western blot of phosphorylated EGFR and total EGFR in A549 cells. It is filed as cell-based. The conditions noted are these: 10~40 μM for 24 hours. The procedure:
At the end of treatment, the total protein extracts were prepared for Western blot analyses using specific antibodies, including rabbit anti-p-EGFR (Tyr1068), rabbit anti-EGFR and mouse anti-actin. Representative immunoblotting data were shown from one of three separate experiments with similar findings. Actin was an internal control protein.
Please refer to FIG. 14. The expressions of phosphorylated EGFR and total EGFR proteins after treatment with SP101 (10˜40 μM for 24 hours) in the K-Ras mutation A549 cells were analyzed by Western blot. […] Please refer to FIG. 15. We further examined the apoptosis levels of SP101 in A549 cells by Annexin V and PI staining. The cells were trypsinized and then incubated with propidium iodide (5 μl) and Annexin V-FITC (5 μl) at room temperature for 5 min before flow cytometry.
On the technique in general: A western blot detects proteins with antibodies after separation by electrophoresis.

The next data set has as its system PLC26 cells. The data set is described as follows: Annexin V/PI apoptosis flow cytometry in PLC26 cells. Type of data set: cell-based, human. The conditions noted are these: 30 μM for 24 hours. The protocol:
At the end of treatment, apoptosis was measured by Annexin V-PI staining using flow cytometry analysis. The population of Annexin V+/PI− cells represents cells undergoing early apoptosis (low right), whereas the fraction of Annexin V+/PI+ cell are those undergoing late apoptosis (upper right).
We have further investigated the effect of SP101 in PLC26 lung cancer cells separated from the pleural effusion of a clinical lung cancer patient. To compare the cell viability of SP101 and Gefitinib in PLC26 cells, the cells were treated with 0˜40 μM SP101 or Gefitinib for 24 hours, and analyzed by MTT assays. Please refer to FIG. 21. […] The apoptosis levels of SP101 in PLC26 cells were analyzed by Annexin V and PI staining. The PLC26 cells were trypsinized and then incubated with propidium iodide (5 μl) and Annexin V-FITC (5 μl) at room temperature for 5 mins before flow cytometry. Please refer to FIG. 22.

The test system of data set [2] is Oct4, Nanog and Survivin in A549-ON cells. Kind of data set: Western blot and immunofluorescence of Oct4, Nanog and Survivin in A549-ON cells. Type of data set: cell-based, human. The protocol:
At the end of treatment, the total protein extracts were prepared for Western blot analyses using specific antibodies, including rabbit anti-Survivin, rabbit anti-cleaved caspase 3 and mouse anti-actin. Representative immunoblotting data were shown from one of three separate experiments with similar findings. […] was an internal control protein.
(§1) FIG. 17 is a result of immunofluorescence staining and confocal microscopy. Then green color indicates the location of Oct4 excited with 488 nm and the emission and collected in 493-518 nm. The β-tubulin was stained with Cy3-labeled mouse anti-β-tubulin antibody. The fluorescence intensity of β-tubulin (red color) was excited with 543 nm and the emission was collected in range of 560-580 nm. Blue fluorescence indicates nuclei following staining with Hoechst 33258 and was excited with 405 nm and the emission was collected in 415-450 nm. Overlapping localization is shown in the merged images.
as §1, with “18” for “17”, “Survivin protein” for “Oct4”
Oct4 and Nanog have been served as markers of tumorigenesis. Furthermore, Oct4 played a pivotal role in Gefitinib resistance in lung cancer stem cells. […] Please refer to FIG. 16. […] We further investigated the expression of Oct4 and Survivin by immunofluorescence staining and confocal microscopy. Please refer to FIGS. 17 and 18. The green fluorescence (dylight 488) indicated the location of Oct4 and Survivin. The blue fluorescence (Hoechst 33258) and red (Cy3) fluorescence represent nucleus and β-tubulin, respectively. Treatment with 30 μM SP101 for 24 hours inhibited Oct4 proteins expression and induced apoptotic bodies as shown in FIG. 17; moreover, the Survivin proteins were inhibited by SP101 treatment as shown in FIG. 18.

A further data set deals with H1975 xenograft tumors. Kind of data set: Xenografted human NSCLC (H1975) tumors in nude mice. Type of data set: in vivo. The conditions noted are these: 30 mg/kg once per four days. From the text: The results were obtained from twelve mice and the bar represents the mean±S.E.M.**p<0.01, indicating significant difference between control and SP101 treatment group mice. ###p<0.001 indicates significant differences between SP101 and Gefitinib-treated mice.
The tumor weight was means±*p<0.05 indicating significant differences between control and SP101 treatment group mice. #p<0.05 indicates significant differences between SP101 and Gefitinib-treated mice.
NSCLC tumors in nude mice were established. Seven-week-old nude mice were subcutaneously injected with 3×10^6 H1975 cells. Please refer to FIGS. 7 and 8. After 7 to 10 days inoculation, the nude mice were treated with vehicle or 30 mg/kg SP101 or 30 mg/kg Gefitinib once per four days and tumor sizes in the nude mice were measured every four days. The nude mice were sacrificed after treatment for 16 days; the tumors were harvested to measure tumor volume/weight and further analyze tumor tissues. […] Please refer to FIG. 9.

[3] abbreviates: 30 μM for 24 hours, immunofluorescence and confocal microscopy.
Where [4] appears, read: 20<30 μM for 24 hours, Western blot.

T1 sequence (P00533 25-1210): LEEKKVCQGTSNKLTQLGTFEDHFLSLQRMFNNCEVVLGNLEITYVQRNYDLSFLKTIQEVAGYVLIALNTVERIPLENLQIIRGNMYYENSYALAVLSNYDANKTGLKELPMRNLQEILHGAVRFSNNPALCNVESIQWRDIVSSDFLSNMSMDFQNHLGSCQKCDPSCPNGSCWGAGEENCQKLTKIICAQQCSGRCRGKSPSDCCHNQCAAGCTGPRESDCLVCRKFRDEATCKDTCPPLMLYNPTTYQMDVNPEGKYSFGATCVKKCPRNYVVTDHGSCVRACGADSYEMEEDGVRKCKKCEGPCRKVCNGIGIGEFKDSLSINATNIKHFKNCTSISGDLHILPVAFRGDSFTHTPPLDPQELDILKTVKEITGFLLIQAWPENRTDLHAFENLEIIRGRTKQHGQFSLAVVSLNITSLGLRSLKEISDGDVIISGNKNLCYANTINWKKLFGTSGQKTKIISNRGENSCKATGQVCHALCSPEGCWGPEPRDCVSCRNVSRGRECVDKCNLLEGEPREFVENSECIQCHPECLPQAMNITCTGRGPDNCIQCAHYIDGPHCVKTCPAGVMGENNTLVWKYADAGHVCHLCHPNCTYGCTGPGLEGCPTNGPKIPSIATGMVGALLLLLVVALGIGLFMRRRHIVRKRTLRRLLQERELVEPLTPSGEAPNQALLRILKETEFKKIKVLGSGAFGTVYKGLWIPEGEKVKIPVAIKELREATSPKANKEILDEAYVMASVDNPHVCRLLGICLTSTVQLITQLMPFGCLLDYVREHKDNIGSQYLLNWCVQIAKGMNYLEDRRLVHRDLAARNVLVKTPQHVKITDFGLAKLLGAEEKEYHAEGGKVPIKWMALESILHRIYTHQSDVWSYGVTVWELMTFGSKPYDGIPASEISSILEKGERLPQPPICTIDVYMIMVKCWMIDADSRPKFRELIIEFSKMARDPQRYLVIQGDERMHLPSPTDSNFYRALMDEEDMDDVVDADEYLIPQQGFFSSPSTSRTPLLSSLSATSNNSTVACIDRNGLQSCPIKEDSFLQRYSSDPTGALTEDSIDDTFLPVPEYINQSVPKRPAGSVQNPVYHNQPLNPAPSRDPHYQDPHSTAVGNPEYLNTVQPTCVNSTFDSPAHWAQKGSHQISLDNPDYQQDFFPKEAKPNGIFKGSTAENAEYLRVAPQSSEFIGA

For the compound `CCCCCCCCCCCCOC(=O)CCC(=O)N1CCN(CCCOc2cc3c(Nc4ccc(F)c(Cl)c4)ncnc3cc2OC)CC1` [SP101, dodecyl 4-(4-(3-(4-(3-chloro-4-fluorophenylamino)-7-methoxyquinazolin-6-yloxy)propyl)piperazin-1-yl)-4-oxobutanoate], in data set [1], the “phosphorylated EGFR (Tyr1068) protein levels” value is “significantly reduced” and the “total EGFR protein levels” value is “did not alter”. Further, the “levels of Annexin V+/PI− cells (early apoptosis) and Annexin V+/PI+ cells (late apoptosis)” value with PLC26 cells is “significantly increased”. In data set [2] (setting [3]), the Oct4 proteins expression result was “inhibited” and the Survivin proteins result is “inhibited”. Moreover, in data set [2] (setting [4]), the Nanog protein expression entry is “significantly reduced”, the Oct4 protein expression result is given as “significantly reduced” and the Survivin protein expression result is listed as “significantly reduced”. Also, the “body weight of the nude mice” value in the data set with H1975 xenograft tumors (during the treatment period) was “did not alter”. Besides, in the data set with H1975 xenograft tumors (H1975 xenograft in nude mice, 16 days), the tumor growth entry is “significantly inhibited”. Also, the tumor weight result with H1975 xenograft tumors (H1975 xenograft in nude mice, after sacrifice at 16 days, compared with Gefitinib) was “more potent on the inhibition of tumor weight than Gefitinib”.
